Measurements taken from paper PMC7849180 (Frontiers in Pharmacology, 2020).

Columns and labels:
[1] = Bone marrow micronucleus test; format: in vivo, NIH mice; conditions: 122, 244, 488 mg/kg oral gavage, 4 days
Text: Suzhou Zelgen Biopharmaceuticals Co., Ltd. Jaktinib Hydrochloride Tablets Chemical Drug Class 1 New Drug chromosomal structural aberrations in CHL cells. Therefore, the results of the chromosomal aberration test were negative.
Mouse Bone Marrow Micronucleus Test
A mouse bone marrow micronucleus test of ZG0128 has been performed. After multiple doses of ZG0128 are given to mice via oral gavage, the incidence of micronucleated polychromatic erythrocytes in the bone marrow is observed to estimate the damage to chromosomal integrity in bone marrow cells and subsequent abnormality of chromosome segregation, so as to determine the presence of genotoxicity. The results […]
once a day for 4 consecutive days, neither damage to the chromosomal integrity in bone marrow cells nor abnormal chromosome segregation was observed. Therefore, the results of the micronucleus test were negative.
A Toxicity Test on Fertility and Early Embryo Development in Wistar Rats Administered ZG0128 by Oral Gavage
A toxicity test on the fertility and early embryo development in Wistar rats given ZG0128 by oral gavage was completed. In this test, female and male rats were given a continuous dose of ZG0128 prior to mating until embryo implantation to observe the toxicity or interference of ZG0128 on the fertility and early embryo development in […]
groups of 18, 36, and 72 mg/kg of ZG0128. […]

[2] = General physicochemical properties
Text: Suzhou Zelgen Biopharmaceuticals Co., Ltd. Jaktinib Hydrochloride Tablets Chemical Drug Class 1 New Drug
Table 5. General physicochemical properties of Jaktinib hydrochloride […]
Appearance Yellow to orange crystalline powder; Odorless; Bitter taste […]
methylpyrrolidone; soluble in N, N-dimethyl formamide; […]
acetonitrile, dioxane, tert-butyl methyl ether or water
Jaktinib dihydrochloride monohydrate is a crystalline solid
Crystal Form containing two molecules of hydrogen chloride and one molecule of water of crystallization, with its crystal form being polymorph

[3] = Treatment-related AEs (NCI CTCAE), SAD cohorts; format: in vivo, human
Procedure: In SAD part, volunteers were designed into eight SAD cohorts (25, 50, 100, 150, 200, 250, 300 and 400 mg). Among these cohorts, 25 mg was bisected by the 50 mg specification under good manufacturing practices (GMP) condition and provided the certificate of analysis. […] Jaktinib or placebo was administrated after an overnight fast.
Dose-limiting toxicities (DLTs) were defined according to the NCI CTCAE v.4.03 as any occurrence of the following drug-related adverse events (AEs): more than one third of volunteers suffered Grade ≥4 drug-related hematological toxicities or Grade ≥3 drug-related nonhematological toxicities; one drug-related serious adverse events (SAEs).

IKKβ = IKKβ (Homo sapiens, UniProt O14920); experiment: Phosphorylation of IκBα by IKKβ; format: biochemical
[4] = test system: Ba/F3-EpoR-JAK2V617F cells; experiment: Cell activity of mutant Ba/F3-EpoR-JAK2V617F; format: cell-based; conditions: read-out: IC50, inhibition of cell activity
Text: Suzhou Zelgen Biopharmaceuticals Co., Ltd. Jaktinib Hydrochloride Tablets Chemical Drug Class 1 New Drug has been completed. The ongoing toxicity tests include a long-term 39-week toxicity test in Beagle dogs by oral administration, a reproductive toxicity test in rats during the teratogenic sensitive period, and a reproductive toxicity test in rabbits during the teratogenic sensitive period.
Preclinical Pharmacodynamic Study
Study on the in vitro Pharmacodynamic Effects of ZG0163 at the […]
In this study, the effects of ZG0163 was similar to those of positive control compounds, ZG0164 and ZG0178.
Study on the in vitro Pharmacodynamic Effects of ZG0163 at the Cellular Level (Ba/F3-EpoR-JAK2V617F cells)
JAK2V617F cell line, the compound ZG0163 was able to induce apoptosis of pathogenic cells and eliminate abnormal cell proliferation by inhibiting the JAK-STAT signaling pathway, thus achieving treatment efficacy in myeloproliferative neoplasms. […]
cell line, manifested as significant inhibition of phosphorylation of JAK2 and its downstream signaling proteins ERK and STAT5. The effects of ZG0163 was similar to those of positive control compounds, ZG0164 and ZG0178.
EpoR-JAK2V617F, which was similar to those of positive control compounds, ZG0164 […]
and ZG0178. However, the inhibitory effect on the activity of Ba/F3-EpoR cell line […]
respectively. […]

[5] = all SAD volunteers who received jaktinib

IKKβ, sequence (O14920 whole entry, species assumed): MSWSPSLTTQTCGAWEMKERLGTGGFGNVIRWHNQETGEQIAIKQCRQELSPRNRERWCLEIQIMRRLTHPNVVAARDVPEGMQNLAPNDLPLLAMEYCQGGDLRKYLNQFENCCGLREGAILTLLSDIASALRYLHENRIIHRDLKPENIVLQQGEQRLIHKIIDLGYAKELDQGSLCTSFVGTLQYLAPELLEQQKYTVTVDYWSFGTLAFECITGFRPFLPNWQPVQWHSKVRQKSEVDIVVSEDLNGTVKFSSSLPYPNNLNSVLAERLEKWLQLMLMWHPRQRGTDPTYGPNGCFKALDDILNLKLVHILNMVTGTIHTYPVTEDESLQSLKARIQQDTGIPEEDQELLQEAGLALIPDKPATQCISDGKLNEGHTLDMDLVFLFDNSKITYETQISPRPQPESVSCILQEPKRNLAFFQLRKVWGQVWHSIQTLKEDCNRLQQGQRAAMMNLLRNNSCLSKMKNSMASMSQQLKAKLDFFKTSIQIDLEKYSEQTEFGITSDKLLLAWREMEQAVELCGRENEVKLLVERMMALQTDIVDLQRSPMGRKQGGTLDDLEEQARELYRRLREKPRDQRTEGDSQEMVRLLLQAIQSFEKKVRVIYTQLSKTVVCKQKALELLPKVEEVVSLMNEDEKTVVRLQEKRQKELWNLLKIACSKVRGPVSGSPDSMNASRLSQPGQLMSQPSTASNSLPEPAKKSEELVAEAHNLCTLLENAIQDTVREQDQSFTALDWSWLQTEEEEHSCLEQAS

Cl.Cl.O.[2H]C1([2H])COCC([2H])([2H])N1c1ccc(Nc2nccc(-c3ccc(C(=O)NCC#N)cc3)n2)cc1 [ZG0128, Jaktinib Dihydrochloride Monohydrate]
micronucleus test result [1]: negative | Hygroscopicity [2]: Slightly hygroscopic | Solubility ([2]; 0.1 mol/L hydrochloric acid): slightly soluble | Solubility ([2]; dimethyl sulfoxide): freely soluble | Solubility ([2]; ethanol): slightly soluble in ethanol | Solubility ([2]; methanol): slightly soluble | Solubility ([2]; water): practically insoluble

Jaktinib
Elevated serum creatinine ([3]; 25 mg, Grade 1–2): 1 (16.7) n (%) | Hematuria ([3]; 100 mg, Grade 1–2): 1 (16.7) n (%) | Fecal leukocytosis ([3]; 150 mg, Grade 1–2): 1 (16.7) n (%) | Hyperglycemia ([3]; 150 mg, Grade 1–2): 1 (16.7) n (%) | Mucous stool ([3]; 150 mg, Grade 1–2): 1 (16.7) n (%) | Positive fecal occult blood ([3]; 150 mg, Grade 1–2): 1 (16.7) n (%) | Upper abdominal pain ([3]; 150 mg, Grade 1–2): 1 (16.7) n (%) | Urinary sediment positive ([3]; 150 mg, Grade 1–2): 1 (16.7) n (%) | Urine erythrocyte positive ([3]; 150 mg, Grade 1–2): 3 (50.0) n (%) | Urine leukocyte positive ([3]; 150 mg, Grade 1–2): 2 (33.3) n (%) | Nausea ([3]; 200 mg, Grade 1–2): 1 (16.7) n (%) | Urine erythrocyte positive ([3]; 200 mg, Grade 1–2): 1 (16.7) n (%) | Fever ([3]; 250 mg, Grade 1–2): 1 (16.7) n (%) | Headache ([3]; 250 mg, Grade 1–2): 1 (16.7) n (%) | Varicella ([3]; 250 mg, Grade 3): 1 (16.7) n (%) | Dizziness ([3]; 300 mg, Grade 1–2): 1 (16.7) n (%) | Fever ([3]; 300 mg, Grade 1–2): 1 (16.7) n (%) | Headache ([3]; 300 mg, Grade 1–2): 4 (66.7) n (%) | Lymphocytopenia ([3]; 300 mg, Grade 1–2): 1 (16.7) n (%) | Neutrophilic granulocytosis ([3]; 300 mg, Grade 1–2): 1 (16.7) n (%) | Anemia ([3]; 400 mg, Grade 1–2): 1 (16.7) n (%) | volunteers with treatment-related AEs ([3]; all SAD cohorts): 28.1% | Headache incidence [3, 5]: 10.4% | positive urine erythrocyte incidence [3, 5]: 8.3% | effect on phosphorylation of IκBα by IKKβ (IKKβ): no significant effects | IC50 [4]: 0.5 µM
